According to EP0235408B1, “Pharmaceutical composition and treatment” (THE UNIVERSITY OF TORONTO I[…], priority 1986, dated 1987):
“And” between values parts separate entries of the source, which are not always exact repeats. Identical values can stand only once. Counter-ions that a name gives are not always drawn. Marks after values point to notes of the source that are not given here.

Assays:
[1] = tested on: laboratory rats; test: Drug-induced sleep tracked by electroencephalograph (Example 4); format: in vivo; conditions: for induced sleep (duration): 500 mg per kilogram, EEG
Method: The preferred compound according to the invention was administered to labotatory rats, and the sleep of the animals induced by the drug was tracked by means of an electroencephalograph.
Compound ethyl 4-acetoxybutanoate, administered by mouth at a dosage of 250 mg per kilogram body weight induced sleep for 1 hour 28 minutes. At a dosage of 500 mg per kilogram administered in one case by mouth and in another case intraperitoneally, sleep was induced for 4 hours.
The administration to a similar laboratory rat, intraperitoneally, of a dosage of 500 mg per kilogram body weight of GHB induced sleep for only 1 hour 59 minutes, by contrast.

[2] = tested on: laboratory rats; test: Effects on sleep and righting time, oral administration (Example 5); format: in vivo; conditions: 10 mM/kg body weight; for TIME SLEPT (mins) AVG 1: average based only on the animals which slept
Method: The effects on sleep and- righting time of the oral and in traperitoneal administration of the prior art compound hydroxybutyrate sodium salt (GHB) and 4-acetoxybutanoate (EAB) according to the invention were determined, using groups of labotatory rats.
In a first experiment, GHB was administered at high dosage level (25 mM/Kg or 3 g/kg body weight) orally to three animals. […] The most likely reason is that oral GHB is poorly absorbed.
In a second experiment each of GHB and EAB was given to separate groups of twelve and eleven animals respectively, by oral administration at the same, lower dosage level of 10 mM/kg body weight.

[3] = Toxicity in animal models; conditions: rat, in vivo; laboratory rats; read-out: dose required before a toxic level is reached
Method: In tests conducted in animal models, the compound ethyl 4-acetoxybutanoate has evidenced extremely low levels of toxicity. In tests conducted with laboratory rats as reported below, doses as high as 3000 mg per kilogram body weight are required, before a toxic level is reached.

[4] = tested on: rats; test: Effects on sleep and righting time, intraperitoneal administration (Example 6); conditions: 5 mM/kg body weight; for TIME SLEPT (mins) AVG 1: average based only on the animals which slept; for TIME SLEPT (mins): individual animals, asterisk = animal could be placed on its back for the time indicated, DNS = did not sleep
[5] = 250 or 500 mg per kilogram, by mouth or intraperitoneally
[6] = individual animals, asterisk = animal could be placed on its back for the time indicated, DNS = did not sleep
[7] = average of all the rats, whether they slept or not

SMILES: CCOC(=O)CCCOC(C)=O [EAB, ethyl 4-acetoxybutanoate]
- ill effects upon waking [1, 5]: none of the animals exhibited ill effects
- muscle relaxation during sleep [1, 5]: the limbs and other body joints were quite flaccid
- induced sleep (duration) ([1]; by mouth): 4 h
- induced sleep (duration) ([1]; intraperitoneally): 4 h
- TIME SLEPT (mins) RANGE [2]: 103.9 to 331.6 min
- animals put to sleep [2]: put all rats to sleep
- animals that could be placed on their backs [2]: four of eleven could be placed on their backs for more than five hours
- ill effects upon waking [2]: none of the animals exhibited any ill effects
- muscle relaxation during sleep [2]: loose and flaccid
- sign of toxicity [2]: No sign of toxicity was observed
- TIME SLEPT (mins) AVG 1 [2]: 170.57 min
- TIME SLEPT [2, 6]: 103.90 min and 120.30 min and 106.10 min and 125.75 min and 143.45 min and 120.00 min and 175.80 min
- TIME SLEPT (mins) [2, 6]: 331.60* mins and 311.50* mins and 317.65* mins and 300.20* mins
- NOAEL [3]: ≥ 3000 mg/kg
- TIME SLEPT (mins) RANGE [4]: 39.30 to 259.00 min
- ill effects upon waking [4]: none of them showed any ill effects
- muscle relaxation during sleep [4]: exhibited a high degree of muscle relaxation
- TIME SLEPT (mins) AVG 1 [4]: 126.89 min
- TIME SLEPT (mins) [4]: 51.70* mins and 39.30* mins and 199.65* mins and 141.70* mins and 70.00* mins and 259.00* mins

SMILES: O=C(O)CCCO [GHB, hydroxybutyrate sodium salt, reference compound]
- TIME SLEPT (mins) RANGE [2]: 0 to 74.7 min
- TIME SLEPT (mins) AVG 1 [2]: 65.76 min
- TIME SLEPT (mins) AVG 2 [2, 7]: 27.40 min
- TIME SLEPT ([2]; individual animals, asterisk = animal could be placed on its back for the time indicated, DNS = did not sleep, sodium salt): 72.80 min and 64.70 min and 60.80 min and 55.80 min and 74.70 min
- TIME SLEPT (mins) RANGE [4]: 0 to 87.35 min
- TIME SLEPT (mins) AVG 1 [4]: 72.04 min
- TIME SLEPT (mins) AVG 2 [4, 7]: 48.03 min
- TIME SLEPT (mins) ([4]; sodium salt): 70.20* mins and 55.40* mins and 75.20* mins and 87.35* mins
